Reference: ChEMBL document CHEMBL1147125, “Microbial transformation of (-)-guaiol and antibacterial activity of its transformed products” (2007)

Assays:
Bacillus subtilis = experiment: Antibacterial activity against Bacillus subtils at 100 ug/100 uL after 24 hrs; assay type: functional
Pseudomonas aeruginosa = experiment: Antibacterial activity against Pseudomonas aeruginosa at 100 ug/100 uL after 24 hrs; assay type: functional
Shigella flexneri = experiment: Antibacterial activity against Shigella flexneri at 100 ug/100 uL after 24 hrs; assay type: functional
Salmonella typhi = experiment: Antibacterial activity against Salmonella typhi at 100 ug/100 uL after 24 hrs; assay type: functional, Salmonella enterica subsp. enterica serovar Typhi
Staphylococcus aureus = experiment: Antibacterial activity against Staphylococcus aureus at 100 ug/100 uL after 24 hrs; assay type: functional
Escherichia coli = experiment: Antibacterial activity against Escherichia coli at 100 ug/100 uL after 24 hrs; assay type: functional

Compound	inhibition zone (IZ) (Bacillus subtilis)	inhibition zone (IZ) (Pseudomonas aeruginosa)	inhibition zone (IZ) (Shigella flexneri)	inhibition zone (IZ) (Salmonella typhi)	inhibition zone (IZ) (Staphylococcus aureus)	inhibition zone (IZ) (Escherichia coli)
C[C@H]1CC[C@@H](C(C)(C)O)C(=O)C2=C1CC[C@@H]2C	11 mm	13 mm	10 mm			
C[C@@H]1C2=CC[C@H](C)[C@@H]2C[C@H](C(C)(C)O)C[C@@H]1O		20 mm		16 mm		
C[C@@H]1C2=C(C[C@H](C(C)(C)O)C[C@H]1O)[C@@H](C)[C@@H](O)C2		17 mm		15 mm	20 mm	
C[C@H]1CC[C@@H](C(C)(C)O)C[C@@H]2C1=CC(=O)[C@@H]2C	11 mm	13 mm				
C[C@@H]1[C@@H]2C[C@H](C(C)(C)O)CC[C@H](C)C2=C[C@@H]1O		20 mm		15 mm		
C[C@H]1CC[C@@H](C(C)(C)O)CC2=C1CC[C@@H]2C [GUAIOL]	15 mm	17 mm	17 mm	24 mm		16 mm
C[C@@H](O)[C@H]1C(=O)N2C(C(=O)O)=C(SCCNC=N)C[C@H]12 [IMIPENEM ANHYDROUS]	33 mm	24 mm	27 mm	25 mm	33 mm	30 mm
